Measurements: patent US20260131020A1, “IONIZABLE CATIONIC LIPID FOR RNA DELIVERY” (Arcturus Therapeutics, Inc., priority 2016, published 2026)
Each block holds one compound with its values, some of them ahead of it.

What was measured:
[1] = system: mouse epo mRNA; assay: In vivo EPO mRNA stability: epo mRNA levels after injection of lipid encapsulated mouse epo mRNA; design: species or system Female Balb/c mice; conditions: nanoparticles with the cationic lipid, i.v. tail vein, 0.03 and 0.1 mg/kg mRNA, blood at 6 hours; FIG. 14
Procedure: Levels of mRNA in plasma were measured and compared following injection of nanoparticles comprising different cationic lipids. Female Balb/c mice (6-8 week old) were used for evaluation of plasma erythropoietin (epo) levels in vivo following injection of lipid encapsulated mouse epo mRNA. All formulations were administered intravenously via tail vein injection at a dose of 0.03 and 0.1 mg/kg at a dosing volume of 5 ml/kg. Terminal blood collection was performed via cardiac puncture under 2% isoflurane at 6 hours after formulation injections. Blood was collected into 0.109 M citrate buffer tube and processed by centrifugation at 5000 rpm for 10 minutes. Serum was collected and epo mRNA levels were analyzed. Results are shown at FIG. 14.

[2] = Titration of lipids to measure pKa; assay type: physicochemical; conditions: lipids titrated
Excerpt: The lipids were titrated to measure their pKa values.

[3] = system: Factor VII; assay: In vivo mouse Factor VII siRNA knockdown (chromogenic assay of plasma Factor VII protein); design: species or system Female C57BL/6 mice; conditions: Factor VII siRNA formulations, i.v. tail vein, both at 0.03 and 0.1 mg/kg, plasma at 48 hours; FIG. 15
Procedure: Using a liver-directed in vivo screen of the liposome libraries, a series of compounds were tested that facilitate high levels of siRNA mediated gene silencing in hepatocytes, the cells comprising the liver parenchyma. Factor VII, a blood clotting factor, is a suitable target gene for assaying functional siRNA delivery to liver. Because this factor is produced specifically in hepatocytes, gene silencing indicates successful delivery to parenchyma, as opposed to delivery to the cells of the reticulo-endothelial system (e.g., Kupffer cells). Furthermore, Factor VII is a secreted protein that can be readily measured in serum, obviating the need to euthanize animals. Silencing at the mRNA level can be readily determined by measuring levels of protein. This is because the protein's short half-life (2-5 hour). Compositions with siRNA directed to Factor VII were formulated with ATX-002, ATX-57, and ATX-58, and comparator sample phosphate-buffered saline (PBS). Female C57BL/6 mice (6-8 week old) were used for FVII siRNA knockdown (KD) experiments. […] Plasma was collected and Factor VII protein levels were analyzed by chromogenic assay (Biophen FVII, Aniara Corporation). A standard curve was constructed using samples from PBS-injected mice and relative Factor VII expression was determined by comparing treated groups to untreated PBS control.

[4] = system: epo protein; assay: In vivo epo protein expression after delivery of lipid encapsulated mouse epo mRNA (epo ELISA); design: species or system Female Balb/c mice; conditions: mouse epo mRNA nanoparticles, i.v. tail vein, at 0.1 mg/kg (so in the source), serum at 6 hours; FIG. 16
Procedure: Female Balb/c mice (6-8 week old) were used for evaluation of epo protein expression in vivo following delivery of lipid encapsulated mouse epo mRNA. All formulations were administered intravenously via tail vein injection at a dose of 0.03 and 0.1 mg/kg at a dosing volume of 5 mL/kg. Terminal blood collection was performed via cardiac puncture under 2% isoflurane at 6 hours after formulation injections. Blood was collected into 0.109 M citrate buffer tube and processed by centrifugation at 5000 rpm for 10 minutes. Serum was collected and epo protein levels were analyzed by epo ELISA assay (R&D systems). A standard curve was constructed using samples from PBS-injected mice and relative epo expression was determined by comparing treated groups to untreated PBS control.

SMILES: CCCCCC/C=C\COC(=O)CCCCCN(CCCC(=O)OC(CCCCCCC)CCCCCCC)C(=O)SCCN(C)C [ATX-83]
epo mRNA levels compared with ATX-2 [1]: substantial improvement over ATX-2

SMILES: CCCCCC/C=C\COC(=O)CCCN(CCCC(=O)OC(CCCCCCCC)CCCCCCCC)C(=O)SCCN(C)C [ATX-87]
epo mRNA levels compared with ATX-2 [1]: substantial improvement over ATX-2

SMILES: CCCCCC/C=C\COC(=O)CCCN(CCCC(=O)OC(CCCCCC)CCCCCC)C(=O)SCCN(C)C [ATX-86]
epo mRNA levels compared with ATX-2 [1]: substantial improvement over ATX-2

SMILES: CCCCCC/C=C\COC(=O)CCCCCN(CCC(=O)OC(CCCCCCC)CCCCCCC)C(=O)SCCN(C)C [ATX-82]
epo mRNA levels compared with ATX-2 [1]: substantial improvement over ATX-2

Continued, in another order:

pKa [2]: 5.9
SMILES: CCCCCC/C=C\COC(=O)CCCN(CCCC(=O)OC(CCCCCCC)CCCCCCC)C(=O)SCCN(C)C [ATX-81]
epo mRNA levels compared with ATX-2 [1]: substantial improvement over ATX-2

pKa [2]: 6.1
SMILES: CCCCCC/C=C\COC(=O)CCCN(CCCC(=O)OC(CCCCCC)CCCCCCC)C(=O)SCCN(C)C (centres unmarked) [ATX-58]
Factor VII knockdown activity compared with ATX-002 [3]: substantially more effective than ATX-002

pKa [2]: 6
SMILES: CCCCCC/C=C\COC(=O)CCCN(CCCC(=O)OC(CCCCCCC)CCCCCCCC)C(=O)SCCN(C)C (centres unmarked) [ATX-57]
epo mRNA levels compared with ATX-2 [1]: substantial improvement over ATX-2
epo expression compared with ATX-2 [4]: substantially higher amounts
Factor VII knockdown activity compared with ATX-002 [3]: substantially more effective than ATX-002

pKa [2]: 6.1
SMILES: CCCCCC/C=C\COC(=O)CCCCCN(CCCC(=O)OC(CCCCCC)CCCCCC)C(=O)SCCN(C)C [ATX-84]
epo mRNA levels compared with ATX-2 [1]: substantial improvement over ATX-2
